Test results: patent publication US20250019374A1, “PROTEIN TYROSINE PHOSPHATASE INHIBITORS AND METHODS OF USE THEREOF” (Calico Life Sciences LLC, priority 2021, published 2025)
Read-outs that look alike come from different tables or passages of the source.

Legend:
[1] = target: His tagged PTPN2 (TC45) protein (Homo sapiens (Human), UniProt P17706); assay: PTPN2 Mobility Shift Assay (MSA); type: biochemical; conditions: for Dihydrobenzofuran or Indoline x-fold>potency biochemical: x-fold versus corresponding chromane comparator, PTPN2 MSA
Procedure, shortened: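 His-tagged human PTPN2 (TC45), 0.5 nM, preincubated with compound (12-point, 1:3) 10 min at room temperature in HEPES pH 7.5 buffer with EDTA, EGTA, DTT. Dephosphorylation of 2 μM fluorescent phospho-insulin-receptor peptide over 10 min read by mobility shift; IC50 from % inhibition.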

[2] = target: His tagged full-length PTPN1 protein (Homo sapiens (Human), UniProt P18031); assay: PTPN1 Mobility Shift Assay (MSA); type: biochemical; conditions: enzyme 0.5 nM, substrate 2 μM
Procedure, shortened: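 Enzyme at 0.5 nM was preincubated with compound (12-point, 1:3 dilution) for 10 min at room temperature in pH 7.5 HEPES buffer with EDTA, EGTA and DTT. OG488-labelled phosphorylated insulin-receptor peptide at 2 µM was then added for 10 min. After quench, % substrate dephosphorylation was read by mobility shift, and IC50 came from % inhibition.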

[3] = system: IFNγ-induced STAT1 phosphorylation (pSTAT1) in B16F10 cells; assay: B16F10 Phospho-STAT1 HTRF proximal pharmacodynamic (PD) assay; type: cell-based, murine; conditions: for EC50: B16-F10, B16F10 cells; for Dihydrobenzofuran or Indoline x-fold>potency cellular: x-fold versus corresponding chromane comparator, B16F10 pSTAT1
Procedure, shortened: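 B16F10 cells in phenol red-free DMEM/10% FBS were dosed for 3 h at 37 °C in a 10-point, 3-fold series from 50 μM, then stimulated with 100 nM mouse IFNγ for 10 min and stopped with 3.3 μM staurosporine. pSTAT1 in lysates was measured by HTRF (665 nm emission), and EC50s were fitted from dose-response curves.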

[4] = 3 hours compound, 100 nM mouse IFNγ 10 minutes, read-out: B16F10 IFNγ Induced pSTAT1 EC50
[5] = Table 3, dihydrobenzofuran or indoline compound (X = O or NH)
[6] = Mus musculus, Table 3, dihydrobenzofuran or indoline compound (X = O or NH), read-out: pSTAT1 EC50

His tagged full-length PTPN1 protein, sequence (P18031 whole entry): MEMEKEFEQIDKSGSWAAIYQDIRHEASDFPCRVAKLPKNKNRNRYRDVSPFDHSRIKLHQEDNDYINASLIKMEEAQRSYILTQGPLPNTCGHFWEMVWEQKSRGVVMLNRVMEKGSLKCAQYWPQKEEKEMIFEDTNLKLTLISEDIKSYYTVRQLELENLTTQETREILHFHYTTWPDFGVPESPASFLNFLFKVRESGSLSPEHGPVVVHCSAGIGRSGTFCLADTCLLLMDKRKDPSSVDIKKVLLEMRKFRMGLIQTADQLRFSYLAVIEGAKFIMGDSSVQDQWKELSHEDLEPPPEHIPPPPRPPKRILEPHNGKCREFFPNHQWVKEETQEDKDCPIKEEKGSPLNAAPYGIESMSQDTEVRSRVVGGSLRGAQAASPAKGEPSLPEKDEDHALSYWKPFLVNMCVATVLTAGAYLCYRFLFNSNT
His tagged PTPN2 (TC45) protein, sequence (P17706 other isoform, or with tags, fused parts or gaps): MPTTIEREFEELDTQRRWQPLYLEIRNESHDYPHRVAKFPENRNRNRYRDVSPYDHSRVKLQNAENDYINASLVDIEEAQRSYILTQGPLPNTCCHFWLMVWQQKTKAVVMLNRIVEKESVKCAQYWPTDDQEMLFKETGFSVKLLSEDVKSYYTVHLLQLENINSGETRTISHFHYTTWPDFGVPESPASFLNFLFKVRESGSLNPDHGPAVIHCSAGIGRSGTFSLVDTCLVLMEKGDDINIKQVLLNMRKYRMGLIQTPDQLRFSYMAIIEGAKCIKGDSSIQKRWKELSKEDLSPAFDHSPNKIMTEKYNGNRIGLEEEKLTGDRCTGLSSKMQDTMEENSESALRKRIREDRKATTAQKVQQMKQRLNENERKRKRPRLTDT

IC50 [2] | EC50 [3, 4] | EC50 [3, 6] | Compound | IC50 ([1]; enzyme 0.5 nM, substrate 2 μM) | IC50 [1, 5] | Dihydrobenzofuran or Indoline x-fold>potency biochemical [1] | Dihydrobenzofuran or Indoline x-fold>potency cellular [3]
10 to 100 nM | 770 nM |  | O=C1CN(c2c(O)cc3c(c2F)C[C@H](CNCC2CCCC2)O3)S(=O)(=O)N1 [Compound 113, 5-[(2R)-2-{[(cyclopentylmethyl)amino]methyl}-4-fluoro-6-hydroxy-2,3-dihydro-1-benzofuran-5-yl]-1λ^6,2,5-thiadiazolidine-1,1,3-trione] | 10 to 100 nM |  |  | 
10 to 100 nM | 15700 nM |  | CC(C)CN(C)C[C@H]1Cc2c(cc(O)c(N3CC(=O)NS3(=O)=O)c2F)N1 [Compound 155, 5-[(2R)-4-fluoro-6-hydroxy-2-{[methyl(2-methylpropyl)amino]methyl}-2,3-dihydro-1H-indol-5-yl]-1λ^6,2,5-thiadiazolidine-1,1,3-trione] | 10 to 100 nM |  |  | 
10 to 100 nM | 776 nM |  | CCNC[C@H]1Cc2c(cc(O)c(N3CC(=O)NS3(=O)=O)c2F)O1 [Compound 112, 5-{(2R)-2-[(ethylamino)methyl]-4-fluoro-6-hydroxy-2,3-dihydro-1-benzofuran-5-yl}-1λ^6,2,5-thiadiazolidine-1,1,3-trione] | 10 to 100 nM |  |  | 
10 to 100 nM | 835 nM | 835 nM | CC(C)CCNC[C@H]1Cc2c(cc(O)c(N3CC(=O)NS3(=O)=O)c2F)O1 [Compound 115, 5-[(2R)-4-fluoro-6-hydroxy-2-{[(3-methylbutyl)amino]methyl}-2,3-dihydro-1-benzofuran-5-yl]-1λ^6,2,5-thiadiazolidine-1,1,3-trione] | 10 to 100 nM | 17.1 nM | 0.9 | 8.3
10 to 100 nM | 853 nM |  | CC(C)CNC[C@H]1Cc2c(cc(O)c(N3CC(=O)NS3(=O)=O)c2F)O1 [Compound 100, 5-[(2R)-4-fluoro-6-hydroxy-2-{[(2-methylpropyl)amino]methyl}-2,3-dihydro-1-benzofuran-5-yl]-1λ^6,2,5-thiadiazolidine-1,1,3-trione] | < 10 nM |  |  | 
10 to 100 nM | 947 nM |  | CCC(CC)CNC[C@H]1Cc2c(cc(O)c(N3CC(=O)NS3(=O)=O)c2F)N1 [Compound 134, 5-[(2R)-2-{[(2-ethylbutyl)amino]methyl}-4-fluoro-6-hydroxy-2,3-dihydro-1H-indol-5-yl]-1λ^6,2,5-thiadiazolidine-1,1,3-trione] | 10 to 100 nM |  |  | 
10 to 100 nM | 3090 nM | 3090 nM | O=C1CN(c2c(O)cc3c(c2F)C[C@H](CNCCC2CCOCC2)O3)S(=O)(=O)N1 [Compound 125, 5-[(2R)-4-fluoro-6-hydroxy-2-({[2-(oxan-4-yl)ethyl]amino}methyl)-2,3-dihydro-1-benzofuran-5-yl]-1λ^6,2,5-thiadiazolidine-1,1,3-trione] | < 10 nM | 8.32 nM | 2.2 | 10.4
10 to 100 nM | 701 nM | 701 nM | O=C1CN(c2c(O)cc3c(c2F)C[C@H](CNCCC(F)F)N3)S(=O)(=O)N1 [Compound 140, 5-[(2R)-2-{[(3,3-difluoropropyl)amino]methyl}-4-fluoro-6-hydroxy-2,3-dihydro-1H-indol-5-yl]-1λ^6,2,5-thiadiazolidine-1,1,3-trione] | 10 to 100 nM | 15.2 nM | 0.6 | 5.1
10 to 100 nM | 1170 nM |  | O=C1CN(c2c(O)cc3c(c2F)C[C@H](CNCCC2CC2)N3)S(=O)(=O)N1 [Compound 152, 5-[(2R)-2-{[(2-cyclopropylethyl)amino]methyl}-4-fluoro-6-hydroxy-2,3-dihydro-1H-indol-5-yl]-1λ^6,2,5-thiadiazolidine-1,1,3-trione] | 10 to 100 nM |  |  | 
10 to 100 nM | 1290 nM | 1290 nM | O=C1CN(c2c(O)cc3c(c2F)C[C@H](CNCC2CC(c4ccccc4)C2)O3)S(=O)(=O)N1 (stereo partly drawn) [Compound 129, 5-[(2R)-4-fluoro-6-hydroxy-2-({[(3-phenylcyclobutyl)methyl]amino}methyl)-2,3-dihydro-1-benzofuran-5-yl]-1λ^6,2,5-thiadiazolidine-1,1,3-trione] | < 10 nM | 2.51 nM | 3.3 | >38.8
10 to 100 nM | 1910 nM | 1910 nM | O=C1CN(c2c(O)cc3c(c2F)C[C@H](CNCCC2CCOC2)O3)S(=O)(=O)N1 (stereo partly drawn) [Compound 108, 5-[(2R)-4-fluoro-6-hydroxy-2-({[2-(oxolan-3-yl)ethyl]amino}methyl)-2,3-dihydro-1-benzofuran-5-yl]-1λ^6,2,5-thiadiazolidine-1,1,3-trione] | 10 to 100 nM | 15.8 nM | 2.3 | 11.8
10 to 100 nM | 1350 nM |  | CCCNC[C@H]1Cc2c(cc(O)c(N3CC(=O)NS3(=O)=O)c2F)O1 [Compound 109, 5-{(2R)-4-fluoro-6-hydroxy-2-[(propylamino)methyl]-2,3-dihydro-1-benzofuran-5-yl}-1λ^6,2,5-thiadiazolidine-1,1,3-trione] | 10 to 100 nM |  |  | 
10 to 100 nM | 22100 nM | 22100 nM | O=C1CN(c2c(O)cc3c(c2F)C[C@H](CNCC2(CF)CC2)O3)S(=O)(=O)N1 [Compound 131, 5-{(2R)-4-fluoro-2-[({[1-(fluoromethyl)cyclopropyl]methyl}amino)methyl]-6-hydroxy-2,3-dihydro-1-benzofuran-5-yl}-1λ^6,2,5-thiadiazolidine-1,1,3-trione] | 10 to 100 nM | 20.9 nM | 2.4 | >2.3
10 to 100 nM | 2770 nM |  | O=C1CN(c2c(O)cc3c(c2F)C[C@H](CO)N3)S(=O)(=O)N1 [Compound 151, 5-[(2R)-4-fluoro-6-hydroxy-2-(hydroxymethyl)-2,3-dihydro-1H-indol-5-yl]-1λ^6,2,5-thiadiazolidine-1,1,3-trione] | 10 to 100 nM |  |  | 
10 to 100 nM | 1860 nM |  | O=C1CN(c2c(O)cc3c(c2F)C[C@H](CNCCC2CC(F)(F)C2)O3)S(=O)(=O)N1 [Compound 106, 5-[(2R)-2-({[2-(3,3-difluorocyclobutyl)ethyl]amino}methyl)-4-fluoro-6-hydroxy-2,3-dihydro-1-benzofuran-5-yl]-1λ^6,2,5-thiadiazolidine-1,1,3-trione] | < 10 nM |  |  | 
